From US20160264527A1 (priority 2011, published 2016)
Structures can show the parent of a compound that is named as a salt. Where two headings read alike, the source gives them in different places.

Experiments:
INS832/13 cells = test: Insulin secretion from INS832/13 cells, 2-h static incubations; type: cell-based; details: control 1.95
Protocol: Materials. Cell culture supplies were from Corning (Corning, N.Y.) and Fisherbrand (Canada). VVWL70 was dissolved in dimethylsulfoxide (DMSO) before their use in insulin secretion experiments. Palmitate sodium salt was from Nu-Check Prep (Elysian, Minn.) and bicinchoninic acid protein assay kit from Pierce (Rockford, Ill.) was used. Stock unlabelled palm itate was prepared at 4 mM in 5% defatted BSA as described elsewhere (Roduit et al. Diabetes (2004) 53 pp 1007-1019,).
Cell culture. INS832/13 cells (Hohmeir et al. Diabetes (2000) 49 pp 424-430,) were cultured at 37° C. in a humidified atmosphere containing 5% CO2 in RPMI 1640 with sodium bicarbonate, supplemented with 10% (v/v) fetal calf serum (Wisent), 10 mM HEPES, pH 7.4, 2 mM L-glutamine, 1 mM sodium pyruvate and 50 μM β-mercaptoethanol (complete RPMI). Cells were grown to 80% confluence. Media were changed to RPMI 1640 containing 3 mM glucose supplemented as the complete RPMI 24 h prior to the experiments. Insulin secretion incubations were conducted in Krebs-Ringer bicarbonate buffer containing 10 mM HEPES, pH 7.4 (KRBH).
Insulin secretion measurement. INS832/13 cells were washed in KRBH containing 1 mM glucose and 0.5% defatted BSA (KRBH 1 G/0.5% BSA) and pre-incubated for 45 min in KRBH 1 G/0.5% BSA in presence of pharmacological agents (at indicated concentrations) or vehicle (DMSO). For examining the effect of VVWL70 (an inhibitor of ABHD6), other compounds identified in table 1, and/or orlistat (lipase inhibitor), the compounds were added first in pre-incubation media and then during incubation at 1 to 20 μM concentration (see Table-2) at 2 mM and 10 mM glucose. Insulin secretion from INS832/13 cells was measured from 2-h static incubations in KRBH containing various glucose concentrations, 0.5% defatted BSA and pharmacological agents or vehicle (DMSO), with or without 35 mM KCl or 0.3 mM palm itate, as specified (see Peyot et al., 2009—Adipose Triglyceride Lipase Is Implicated in Fuel- and Non-fuel-stimulated Insulin Secretion—J Biol Chem, 284: pp. 16848-16859). The experiments were done 3 times, with triplicates of each measurement.

CD1 strain mice = test: Oral glucose tolerance test (OGTT) in streptozotocin-induced mildly diabetic mice; type: in vivo; details: 5 mg/kg intraperitoneally daily for three days prior to OGTT; glucose 2 g/kg by gavage; versus vehicle; FIGS. 1 and 2
Protocol: In this experiment—CD1 strain mice were injected once with streptozotocin (100 mg/kg body wt) to induce mild diabetes. After 4 weeks, the mice were fasted overnight and oral glucose tolerance test (OGTT) was done. Half the animals (5) received ABHD6 inhibitor, VVWL70 for the three days prior to OGTT, daily, intraperitoneally (at 5 mg/kg body weight) and the other half received only vehicle. For OGTT, glucose was given by gavage (2 g/kg body wt), followed by blood collection at indicated time points (on the graph) for the analysis of blood glucose (by glucometer) and plasma insulin (by ELISA).

DAGL = test: Inhibition of DAGL in INS 832/13 β-cell extracts (1,2-dioleoylglycerol hydrolysis, HPLC); type: biochemical; details: compound at 10 μM; 60 min at 30° C.; 50 μM 1,2-dioleoylglycerol
Protocol: (§1) Both ABHD6 and DAGL enzymes were assayed in a single incubation, with separate substrates. Cell extract, 10 μg was incubated in a final volume of 50 μl with 50 μM 1,2-dioleoylglycerol (substrate for DAGL) and 50 μM 1-palmitoylglycerol (substrate for ABHD6). […] Quantification of oleate and palm itate released gave the activities of DAGL and ABHD6, respectively. Incubations contained indicated compounds at 10 μM (or as shown) concentration. VVWL70 was used as a positive control for ABHD6 inhibition and orlistat (ORL) was used as a control for total lipase inhibition.

ABHD6 = target: T1, ABHD6 (Rattus norvegicus, UniProt Q5XI64); test: biochemical; details: read-out: ABHD6 Inhibition %
T1 construct: INS 832/13 β-cell extracts (whole cell) were prepared by sonication; endogenous in cells; host or cells: INS 832/13 β-cells, whole-cell extract
T1 sequence (Q5XI64 1-337): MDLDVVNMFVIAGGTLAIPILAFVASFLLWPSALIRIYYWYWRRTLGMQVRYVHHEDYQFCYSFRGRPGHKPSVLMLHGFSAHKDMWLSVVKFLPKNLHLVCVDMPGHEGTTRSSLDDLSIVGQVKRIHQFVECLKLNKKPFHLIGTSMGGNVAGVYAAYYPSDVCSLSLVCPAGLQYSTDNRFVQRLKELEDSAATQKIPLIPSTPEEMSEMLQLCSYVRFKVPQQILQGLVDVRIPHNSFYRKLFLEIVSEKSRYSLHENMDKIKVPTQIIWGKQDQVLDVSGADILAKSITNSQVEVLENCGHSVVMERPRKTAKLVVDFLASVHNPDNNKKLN
Protocol: as §1

[1] = compound at 10 μM, 60 min at 30° C., 50 μM 1-palmitoylglycerol

CN(Cc1cccc(-c2ccncc2)c1)C(=O)Oc1ccc(-c2ccc(C(N)=O)cc2)cc1 [Compound 1, reference compound]
Insulin secretion (% content) (INS832/13 cells; compound at 2 μM): 3.22 % content | Insulin secretion (% content) (INS832/13 cells; compound at 5 μM): 3.97 % content | Insulin secretion (% content) (INS832/13 cells; compound at 10 μM): 6.03 % content | blood glucose control in OGTT (CD1 strain mice): able to control their blood glucose levels better than the mice which were given vehicle | plasma insulin levels in OGTT (CD1 strain mice): increase in plasma insulin levels

CNC(=O)c1ccc(-c2ccc(OC(=O)N(C)Cc3cccc(-c4ccncc4)c3)cc2)cc1 [Compound 2, 4′-(Methylcarbamoyl)biphenyl-4-yl N-methyl-N-(3-(pyridin-4-yl)benzyl)carbamate]
DAGL Inhibition % (DAGL): 0% | inhibition at 10 µM (ABHD6): 98% | Insulin secretion (% content) (INS832/13 cells; compound at 2 μM): 2.25 % content | Insulin secretion (% content) (INS832/13 cells; compound at 5 μM): 3.70 % content | Insulin secretion (% content) (INS832/13 cells; compound at 10 μM): 6.08 % content

NC(=O)c1ccc(-c2ccc(OC(=O)N(Cc3cccc(-c4ccncc4)c3)c3ccccc3)cc2)cc1 [Compound 3, trifluoroacetate salt]
DAGL Inhibition % (DAGL): 0% | inhibition at 10 µM (ABHD6; [1]): 90% | Insulin secretion (% content) (INS832/13 cells; compound at 2 μM): 2.00 % content | Insulin secretion (% content) (INS832/13 cells; compound at 5 μM): 2.10 % content | Insulin secretion (% content) (INS832/13 cells; compound at 10 μM): 3.05 % content

CNC(=O)c1ccc(-c2ccc(OC(=O)N(C)Cc3cccc(-c4ccccc4)c3)cc2)cc1 [Compound 4, 4′-(Methylcarbamoyl)biphenyl-4-yl N-methyl-N-(3-phenylbenzyl)carbamate]
DAGL Inhibition % (DAGL): 0% | inhibition at 10 µM (ABHD6): 70% | Insulin secretion (% content) (INS832/13 cells; compound at 2 μM): 3.05 % content | Insulin secretion (% content) (INS832/13 cells; compound at 5 μM): 3.65 % content | Insulin secretion (% content) (INS832/13 cells; compound at 10 μM): 3.82 % content

CN(Cc1cccc(-c2ccncc2)c1)C(=O)Oc1ccc(-c2ccc(C(=O)NC3CC3)cc2)cc1 [Compound 5, 4′-(Cyclopropylcarbamoyl)biphenyl-4-yl N-methyl-N-(3-(pyridin-4-yl)benzyl)carbamate]
DAGL Inhibition % (DAGL): 10% | inhibition at 10 µM (ABHD6): 60% | Insulin secretion (% content) (INS832/13 cells; compound at 2 μM): 2.01 % content | Insulin secretion (% content) (INS832/13 cells; compound at 5 μM): 2.05 % content | Insulin secretion (% content) (INS832/13 cells; compound at 10 μM): 3.56 % content

CNC(=O)c1ccc(-c2ccc(OC(=O)N(Cc3cccc(-c4ccncc4)c3)C(C)C)cc2)cc1 [Compound 6, 4′-(Methylcarbamoyl)biphenyl-4-yl N-i-propyl-N-(3-(pyridin-4-yl)benzyl)carbamate]
DAGL Inhibition % (DAGL): 0% | inhibition at 10 µM (ABHD6; [1]): 95% | Insulin secretion (% content) (INS832/13 cells; compound at 2 μM): 3.10 % content | Insulin secretion (% content) (INS832/13 cells; compound at 5 μM): 3.98 % content | Insulin secretion (% content) (INS832/13 cells; compound at 10 μM): 5.88 % content
